Test results published in PubChem BioAssay AID1224 (NMMLSC, 2008).
The source made the active and inactive calls. No rule for the calls is given here.

Molecular target: G-protein coupled estrogen receptor 1 (Homo sapiens) (UniProt Q99527)
Experiment: fluorescent ligand displacement from GPER – cell-based, dose response (AID 1224)
Conditions: GPR30-expressing cells; for EC50: fluorescent ligand binding displacement

| Structure (SMILES) | remaining binding, lower = displacement (at 100 µM (top of the series)) | EC50 |
| --- | --- | --- |
| CC(=O)c1ccc2c(c1)C1C=CCC1C(c1cccc([N+](=O)[O-])c1)N2 (stereo not drawn) | inactive |  |
| CC(=O)Oc1ccc(C2Nc3c(C(=O)O)ccc([N+](=O)[O-])c3C3C=CCC32)cc1 (stereo not drawn) |  | > 10000 nM (inactive) |
| O=C(O)c1ccc([N+](=O)[O-])c2c1NC(c1ccccc1)C1CC=CC21 (stereo not drawn) |  | 62.3 nM |
